Measured values: ChEMBL document CHEMBL3627699, “Design, synthesis and biological evaluation of 3-aryl-rhodanine benzoic acids as anti-apoptotic protein Bcl-2 inhibitors” (Bioorg Med Chem Lett, 2015)

Assays:
[1] = target: T1, Apoptosis regulator Bcl-2 (Homo sapiens, UniProt P10415); assay: Inhibition of Bcl-2 (unknown origin) by fluorescence polarization assay
[2] = target: Induced myeloid leukemia cell differentiation protein Mcl-1 (Homo sapiens, UniProt Q07820); assay: Inhibition of Mcl-1 (unknown origin) by fluorescence polarization assay
Induced myeloid leukemia cell differentiation protein Mcl-1, sequence (Q07820 whole entry): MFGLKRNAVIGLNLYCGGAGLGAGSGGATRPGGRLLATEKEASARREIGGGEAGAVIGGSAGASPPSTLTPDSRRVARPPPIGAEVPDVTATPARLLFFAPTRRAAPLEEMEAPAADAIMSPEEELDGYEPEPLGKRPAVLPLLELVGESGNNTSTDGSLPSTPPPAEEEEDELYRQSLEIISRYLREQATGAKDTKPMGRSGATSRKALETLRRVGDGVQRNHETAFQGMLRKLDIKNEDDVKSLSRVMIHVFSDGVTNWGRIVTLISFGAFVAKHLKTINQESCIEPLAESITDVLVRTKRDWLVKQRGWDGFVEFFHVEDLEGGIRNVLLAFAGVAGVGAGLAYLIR

Bcl-2-like protein 1 = Bcl-2-like protein 1 (Homo sapiens, UniProt Q07817); assay: Inhibition of Bcl-xL (unknown origin) by fluorescence polarization assay
Bcl-2-like protein 1, sequence (Q07817 whole entry): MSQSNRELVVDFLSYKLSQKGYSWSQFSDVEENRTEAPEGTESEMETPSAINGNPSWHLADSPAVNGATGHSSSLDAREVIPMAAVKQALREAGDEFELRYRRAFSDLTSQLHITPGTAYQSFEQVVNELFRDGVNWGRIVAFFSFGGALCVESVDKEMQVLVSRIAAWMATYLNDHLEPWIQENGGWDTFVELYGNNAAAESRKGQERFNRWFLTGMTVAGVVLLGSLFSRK

PC-3 = assay: Antiproliferative activity against human PC3 cells by MTT assay; format: functional, cell-based
MDA-MB-231 = assay: Antiproliferative activity against human MDA-MB-231 cells by MTT assay; format: functional, cell-based
K562 = assay: Antiproliferative activity against human K562 cells by MTT assay; format: functional, cell-based
[3] = target: T1, Apoptosis regulator Bcl-2; assay: Inhibition of Bcl-2 (unknown origin) at 100 uM by fluorescence polarization assay

T1 sequence (P10415 whole entry): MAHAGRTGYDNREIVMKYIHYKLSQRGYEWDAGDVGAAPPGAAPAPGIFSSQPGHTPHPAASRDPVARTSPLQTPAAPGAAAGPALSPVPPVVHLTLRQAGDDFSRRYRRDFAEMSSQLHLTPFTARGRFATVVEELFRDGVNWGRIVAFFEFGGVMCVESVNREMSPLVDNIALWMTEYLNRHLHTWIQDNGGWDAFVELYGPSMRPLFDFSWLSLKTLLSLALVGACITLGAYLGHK

Structure (SMILES) | Ki [1] [µM] | further results
O=C(O)c1ccc(COc2ccc(/C=C3\SC(=S)N(c4cccc([N+](=O)[O-])c4)C3=O)cc2)cc1 | 9.6 | 
O=C(O)c1ccc(COc2ccc(/C=C3\SC(=S)N(c4ccccc4)C3=O)cc2)cc1 | > 10 | 
COc1ccc(N2C(=O)/C(=C/c3ccc(OCc4ccc(C(=O)O)cc4)cc3)SC2=S)cc1 | > 10 | 
Cc1cccc(C)c1N1C(=O)/C(=C/c2ccc(OCC(=O)Nc3ccc(C(=O)O)cc3)cc2)SC1=S | 7.6 | 
O=C(O)c1ccc(COc2cccc(/C=C3\SC(=S)N(c4ccc([N+](=O)[O-])cc4)C3=O)c2)cc1 | > 10 | 
Cc1cccc(N2C(=O)/C(=C/c3ccc(OCC(=O)Nc4ccc(C(=O)O)cc4)cc3)SC2=S)c1 | > 10 | 
O=C(O)c1ccc(COc2ccc(/C=C3\SC(=S)N(c4ccc(I)cc4)C3=O)cc2)cc1 | 4.3 | Ki [2]: 1.6 µM; Ki (Bcl-2-like protein 1): > 10 µM
Cc1cccc(N2C(=O)/C(=C/c3ccc(OCc4ccc(C(=O)O)cc4)cc3)SC2=S)c1 | > 10 | 
O=C(COc1ccc(/C=C2\SC(=S)N(c3ccccc3)C2=O)cc1)Nc1ccc(C(=O)O)cc1 | > 10 | 
O=C(COc1ccc(/C=C2\SC(=S)N(c3ccc([N+](=O)[O-])cc3)C2=O)cc1)Nc1ccc(C(=O)O)cc1 | > 10 | 
O=C(O)c1ccc(COc2cccc(/C=C3\SC(=S)N(c4ccccc4)C3=O)c2)cc1 | > 10 | 
Cc1ccc(N2C(=O)/C(=C/c3ccc(OCC(=O)Nc4ccc(C(=O)O)cc4)cc3)SC2=S)cc1 | > 10 | 
Cc1ccc(S(=O)(=O)NC(=O)[C@H](Cc2ccccc2)N2C(=O)/C(=C/c3ccc(-c4ccccc4)cc3)SC2=S)cc1 | 0.5 | IC50 (PC-3): > 30 µM; Ki [2]: 0.29 µM; Ki (Bcl-2-like protein 1): 0.57 µM; IC50 (MDA-MB-231): > 30 µM; IC50 (K562): 32.8 µM
O=C(O)c1ccc([N+](=O)[O-])c(COc2ccc(/C=C3\SC(=S)N(c4ccccc4)C3=O)cc2)c1 | 9 | 
O=C(O)c1ccc(COc2ccc(/C=C3\SC(=S)N(Cc4ccc(F)cc4)C3=O)cc2)cc1 | > 10 | 
O=C(O)c1ccc(COc2ccc(/C=C3\SC(=S)N(c4ccc(Br)cc4)C3=O)cc2)cc1 | 0.61 | IC50 (PC-3): 18.9 µM; Ki [2]: 0.7 µM; Ki (Bcl-2-like protein 1): > 10 µM; IC50 (MDA-MB-231): 19.8 µM; IC50 (K562): 43.8 µM
Cc1ccccc1N1C(=O)/C(=C/c2cccc(OCc3ccc(C(=O)O)cc3)c2)SC1=S | 3.1 | Ki [2]: 3.2 µM; Ki (Bcl-2-like protein 1): > 10 µM

Structure (SMILES) | Ki [1] [µM] | further results
O=C(Nc1ccc(O)c(C(=O)O)c1)c1ccc(/C=C2\SC(=S)N(c3ccccc3)C2=O)cc1 | > 10 | 
CC(=O)c1ccc(N2C(=O)/C(=C/c3ccc(OCc4ccc(C(=O)O)cc4)cc3)SC2=S)cc1 | > 10 | 
O=C(O)c1ccc(COc2ccc(/C=C3\SC(=S)N(c4c(F)cccc4F)C3=O)cc2)cc1 | > 10 | 
O=C(O)c1ccc(/C=C2\SC(=S)N(c3ccccc3)C2=O)cc1 | > 10 | inhibition [3]: 18%
COc1ccccc1N1C(=O)/C(=C/c2cccc(OCc3ccc(C(=O)O)cc3)c2)SC1=S | 1.6 | Ki [2]: 3.7 µM; Ki (Bcl-2-like protein 1): > 10 µM
Cc1ccccc1N1C(=O)/C(=C/c2ccc(OCC(=O)Nc3ccc(C(=O)O)cc3)cc2)SC1=S | > 10 | 
COc1ccccc1N1C(=O)/C(=C/c2ccc(OCc3ccc(C(=O)O)cc3)cc2)SC1=S | 2 | Ki [2]: 3.9 µM; Ki (Bcl-2-like protein 1): > 10 µM
O=C(O)c1ccc(COc2ccc(/C=C3\SC(=S)N(c4ccc(F)cc4)C3=O)cc2)cc1 | > 10 | 
COc1ccccc1N1C(=O)/C(=C/c2ccc(OCC(=O)Nc3ccc(C(=O)O)cc3)cc2)SC1=S | 10 | 
Cc1ccc(N2C(=O)/C(=C/c3ccc(OCc4ccc(C(=O)O)cc4)cc3)SC2=S)cc1 | > 10 | 
O=C(O)c1ccc([N+](=O)[O-])c(COc2ccc(/C=C3\SC(=S)N(c4ccc([N+](=O)[O-])cc4)C3=O)cc2)c1 | 3.1 | 
O=C(O)c1ccc(COc2ccc(/C=C3\SC(=S)N(c4ccc(Cl)cc4)C3=O)cc2)cc1 | > 10 | 
O=C(Nc1ccc(O)c(C(=O)O)c1)c1ccc(/C=C2\SC(=S)N(c3ccc([N+](=O)[O-])cc3)C2=O)cc1 | > 10 | 
O=C(O)c1ccc(COc2ccc(/C=C3\SC(=S)N(c4cccc(C(F)(F)F)c4)C3=O)cc2)cc1 | > 10 | 
Cc1cc2c(C(C)C)c(O)c(O)c(C=O)c2c(O)c1-c1c(C)cc2c(C(C)C)c(O)c(O)c(C=O)c2c1O [GOSSYPOL] |  | IC50 (PC-3): 5.61 µM; Ki [2]: 0.31 µM; Ki (Bcl-2-like protein 1): 0.64 µM; IC50 (MDA-MB-231): 4.8 µM; IC50 (K562): 7.31 µM
Cc1cccc(C)c1N1C(=O)/C(=C/c2ccc(OCc3ccc(C(=O)O)cc3)cc2)SC1=S | 0.9 | IC50 (PC-3): 25.8 µM; Ki [2]: 0.72 µM; Ki (Bcl-2-like protein 1): 3.9 µM; IC50 (MDA-MB-231): 25.6 µM; IC50 (K562): 46.6 µM
O=C(O)c1ccc(COc2ccc(/C=C3\SC(=S)N(c4ccc([N+](=O)[O-])cc4)C3=O)cc2)cc1 | > 10 | 
